Reference: ChEMBL document CHEMBL1240398, “Surveillance and correlation of antibiotic prescription and resistance of Gram-negative bacteria in Singaporean hospitals” (2010)

How the values were obtained:
Format in all cases: functional
Escherichia coli [1] = test: Antimicrobial activity against Escherichia coli clinical isolate assessed as resistance isolates by disk diffusion method
Klebsiella pneumoniae [2] = test: Antimicrobial activity against Klebsiella pneumoniae isolate obtained from patient's blood assessed as resistance isolates by disk diffusion method
Escherichia coli [3] = test: Antimicrobial activity against Escherichia coli isolate obtained from patient's blood assessed as resistance isolates by disk diffusion method
Klebsiella pneumoniae [4] = test: Antimicrobial activity against Klebsiella pneumoniae clinical isolate assessed as resistance isolates by disk diffusion method
Acinetobacter sp. [5] = test: Antimicrobial activity against Acinetobacter sp. isolate obtained from patient's blood assessed as resistance isolates by disk diffusion method
Acinetobacter sp. [6] = test: Antimicrobial activity against Acinetobacter sp. clinical isolate assessed as resistance isolates by disk diffusion method
Pseudomonas aeruginosa [7] = test: Antimicrobial activity against Pseudomonas aeruginosa isolate obtained from patient's blood assessed as resistance isolates by disk diffusion method
Pseudomonas aeruginosa [8] = test: Antimicrobial activity against Pseudomonas aeruginosa clinical isolate assessed as resistance isolates by disk diffusion method

Row | Compound | Activity (Escherichia coli [1]) [%] | Activity (Klebsiella pneumoniae [2]) [%] | Activity (Escherichia coli [3]) [%] | Activity (Klebsiella pneumoniae [4]) [%] | Activity (Acinetobacter sp. [5]) [%] | Activity (Acinetobacter sp. [6]) [%] | Activity (Pseudomonas aeruginosa [7]) [%] | Activity (Pseudomonas aeruginosa [8]) [%]
1 | CO/N=C(\C(=O)N[C@@H]1C(=O)N2C(C(=O)O)=C(CSc3nc(=O)c(O)nn3C)CS[C@H]12)c1csc(N)n1 [CEFTRIAXONE] | 20 | 27.4 | 21.7 | 32.3 |  |  |  | 
2 | O=C(O)c1cn(C2CC2)c2cc(N3CCNCC3)c(F)cc2c1=O [CIPROFLOXACIN] |  | 24 | 31 |  |  |  |  | 
3 | C[C@@H](O)[C@H]1C(=O)N2C(C(=O)O)=C(SCCNC=N)C[C@H]12 [IMIPENEM ANHYDROUS] |  |  |  |  | 50 | 46.2 | 12.8 | 7.5
